Experimental data reported in patent US9012419B2, “Methods and compositions related to eosinophil regulation” (University of Utah Research Foundation, priority 2006, dated 2015).
“And” between values parts separate entries of the source, which are not always exact repeats. Equal entries are not always repeated. Structures can show the parent of a compound that is named as a salt. Where two headings read alike, the source gives them in different places.

Experiments:
[1] = test system: EPO stimulated TF-1 cells; assay: TF-1 cell proliferation assay, EPO stimulated cultures; format: cell-based; conditions: Homo sapiens
Description: (§1) Controls and test compounds were assayed in serial dilutions, ranging from 1 mM to 0.5 uM, against TF-1 cell proliferation. Compounds were solublized in DMSO in 0.2M solutions followed by serial dilutions with the culture media.
(§2) Each dilution of the compounds was tested in triplicate in a 96 well, flat bottom tissue culture plate with 10,000 TF-1 cells per well for their abilities to inhibit IL-5 and/or EPO stimulated cultures. Wells without cells were used for the background signals. Both IL-5 and EPO stimulated cell cultures were tested in assays performed on the same day. Cultures were incubated for 72 hours in a 37° C. humidified incubator. At the end of the incubation, CellTiter AQueous One Solution (Promega, Madison, Wis.) was added for 1 to 3 hours, depending on the rate of color change. Following sufficient color change, the plates were read on a spectrophotometer (SpectraMax 190, Molecular Devices) at 490 nm.
(§3) IC-50 and […] values were calculated using the software SOFTmax Pro (Molecular Devices, Sunnyvale, Calif.).
(§4) Compounds were screened by inspecting the IC-50 values of the drug candidate on the proliferation assay. […] Potencies of the investigated compounds in inhibiting TF-1 cell proliferation were evaluated by comparing their IC-50 values relative to lidocaine. Due to the ability of TF-1 cells to be stimulated by a variety of cytokines, specificity can be evaluated by comparing IL-5 and EPO stimulated cell cultures IC-50 values. Specificity or differential inhibition (Di) values can be calculated for the investigated compounds using equation 1. Di=EPO IC-50/IL5 IC-50 (equation 1)

[2] = test system: IL-5 stimulated TF-1 cells; assay: TF-1 cell proliferation assay, IL-5 stimulated cultures; format: cell-based, human; conditions: for Di: Di=EPO IC-50/IL5 IC-50; for IL-5 IC-50 compared with lidocaine: in words
Description: as §1, §2, §3, §4

[3] = nebulized, Hunt, cited from earlier work
[4] = target: T1, IL-5 (Homo sapiens, UniProt P05113); conditions: patients with mild asthma; Leckie, 2000; cited from earlier work
T1 construct: Administration of the anti-IL-5 drug, mepolizumab, to patients with mild asthma reduced blood and sputum eosinophils; host or cells: endogenous IL-5 in human patients with mild asthma (in vivo)
T1 sequence (P05113 20-134): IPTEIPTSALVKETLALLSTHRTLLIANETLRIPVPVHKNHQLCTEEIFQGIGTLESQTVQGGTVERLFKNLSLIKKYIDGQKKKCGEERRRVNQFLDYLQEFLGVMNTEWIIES

[5] = Table 7, TF-1 cells with EPO (2 units/mL), 72 hours, read-out: EPO IC-50
[6] = Homo sapiens, TF-1, 72 h, Table 6, TF-1 cells with IL-5 (5 ng/mL), 72 hours, read-out: IL-5 IC-50
[7] = Homo sapiens, TF-1, 72 h, Table 7, TF-1 cells with IL-5, 72 hours, read-out: IL-5 IC-50
[8] = Homo sapiens, TF-1, text, IL-5 stimulated TF-1 cells, read-out: IL-5 IC-50

Work on `CCCCCC(=O)Nc1c(C)cccc1C` [Compound 15, N-(2,6-dimethylphenyl)hexanamide] yielded an IC50 [1, 5] of 137 µM, an IC50 [2, 6] of 62 µM and an IC50 [2, 7] of 62 µM. The Di ([2]; Table 7) was 2.210 and the “IL-5 IC-50 compared with lidocaine” value [2] was “lower than lidocaine's”.

With `CCN(CC)CC(=O)Nc1c(C)cccc1C` [Compound 1, Lidocaine, reference compound] the IC50 [1, 5] was 200 µM, the IC50 [2, 6] was 147 µM and the IC50 [2, 7] was 147 µM. The IC50 ([2]; Homo sapiens, TF-1, text b313, TF-1 cell proliferation, read-out: IC-50 (fifty percent growth inhibition)) was 147 µM, the IC50 [2, 8] was 140 µM and the Di ([2]; Table 7) was 1.361. For the same molecule, the “prednisolone-dependent patients able to eliminate or significantly reduce steroid usage” value [3]; 1996 was 17 out of 20 and the blood eosinophil levels ([3]; placebo controlled study, mild to moderate asthma, 2004) was “decreased”.

For `O=C(O)COC1Cc2ccccc2CN1` (stereo not drawn) [Compound 10, 3-Carboxymethoxy-1,2,3,4-Tetrahydroisoquinol], the IC50 [2, 6] was 26 µM.

`Cc1cccc(C)c1NC(=O)Cc1ccccc1` [Compound 22, N-(2,6-dimethylphenyl)-2-phenylacetamide] gave an IC50 [1, 5] of 129 µM, an IC50 [2, 6] of 96 µM and an IC50 [2, 7] of 95.5 µM. For the same molecule, the Di ([2]; Table 7) was 1.351 and the “IL-5 IC-50 compared with lidocaine” value [2] was “lower than lidocaine's”.

In the case of `CN1CCOc2cc(C(=O)O)ccc21` [Compound 21, 4-methyl-3,4-dihydro 2H-1,4-benoxazine 7 carboxylic acid], the IC50 [1, 5] is reported as 130 µM, the IC50 [2, 6] is reported as 92 µM and the IC50 [2, 7] is reported as 91.8 µM. For the same molecule, the Di ([2]; Table 7) was 1.412.

For `Cc1cccc(C)c1NC(=O)C(C)N` (stereo not drawn) [Compound 14, Tocainide HCL, reference compound], the IC50 [2, 6] was 49 µM.

`CCN(CC)CC(=O)Nc1c(C)cccc1C.Cl` [Compound 19, Lidocaine HCL, reference compound] showed an IC50 ([1]; TF-1, 72 h, read-out: EPO IC-50, Table 7, TF-1 cells with EPO (2 units/mL)) of 276 µM, an IC50 ([2]; Homo sapiens, TF-1, 72 h, read-out: IL-5 IC-50) of 84 µM and a Di ([2]; Table 7) of 3.286.

In the case of `c1ccc2c(c1)OCC(C1=NCCN1)O2` (stereo not drawn) [Compound 23, Idazoxan Hydrochloride, reference compound], the IC50 [2, 6] is reported as 97 µM.

In the case of `CCCCOc1cc(C(=O)NCCN(CC)CC)c2ccccc2n1` [Compound 13, Dibucaine Hydrochloride, reference compound], the IC50 [2, 6] is reported as 48 µM.

`Nc1ccc2c(c1)OCCO2` [Compound 16, 3,4-Ethylenedioxyaniline] gave an IC50 [1, 5] of 136 µM, an IC50 [2, 6] of 69 µM and an IC50 [2, 7] of 69 µM. It also gave a Di ([2]; Table 7) of 1.971.

For `Nc1ccc(C(=O)NCc2cccnc2)cc1` [Compound 4, 4-Amino-N-pyridin-3-yl-methyl-benzamide], the IC50 [1, 5] was 1.9 µM, the IC50 [2, 6] was 1.3 µM and the IC50 [2, 7] was 1.3 µM. The IC50 [2, 8] was 1.3 µM and the Di ([2]; Table 7) was 1.471.

With `CN1CCOc2cc(Br)ccc21` [Compound 8, 7-Bromo-4-methyl-3,4-dihydro-2H-1,4-benzoxazine] the IC50 [2, 6] was 24 µM.

`Cc1ccccc1C(=O)NCc1cccnc1` [Compound 20, 2-methyl-N-(3-pyridinylmethyl)benzamide] gave an IC50 [1, 5] of 153 µM, an IC50 [2, 6] of 90 µM and an IC50 [2, 7] of 90 µM. The Di ([2]; Table 7) was 1.700.

In the case of `Cc1cccc(C)c1NC(=O)C(C)(C)C` [Compound 18, N-(2,6-dimethylphenyl)pivalamide], the IC50 [2, 6] is reported as 79 µM and the “IL-5 IC-50 compared with lidocaine” value [2] is reported as “lower than lidocaine's”.

`C[C@@H](O)[C@H](NC(=O)c1ccccc1)C(=O)O` [Compound 11, N-Benzoyl-L-Threonine] gave an IC50 [2, 6] of 30 µM.

In the case of `CCN(CC)CCOC(=O)c1ccc(N)cc1` [Compound 17, Procaine, reference compound], the IC50 [1, 5] is reported as 109 µM, the IC50 [2, 6] is reported as 71 µM and the IC50 [2, 7] is reported as 71 µM. The Di ([2]; Table 7) was 1.535.

In the case of `CCCCOc1cc(C(=O)OCCN(CC)CC)ccc1N` [Compound 24, Benoxinate, reference compound], the IC50 [2, 6] is reported as 98 µM.

Molecule “Disopyramide [Compound 27, reference compound]” has an IC50 ([2]; Table 6, TF-1 cells with IL-5 (5 ng/mL), 72 hours, read-out: IL-5 IC-50) of 129 µM.

Work on `CN1CCC(=C2c3ccccc3CC(=O)c3sccc32)CC1` [Compound 3, Ketotifen fumarate, reference compound] yielded an IC50 [1, 5] of 9 µM, an IC50 [2, 6] of 9 µM and an IC50 [2, 7] of 9 µM. For the same molecule, the IC50 [2, 8] was 9 µM and the Di ([2]; Table 7) was 1.000.

Work on `CCCCN1CCCCC1C(=O)Nc1c(C)cccc1C` (stereo not drawn) [Compound 25, Bupivicaine Hydrochloride, reference compound] yielded an IC50 [2, 6] of 107 µM.

Work on `CC[N+](CC)(CC(=O)Nc1c(C)cccc1C)Cc1ccccc1` [Compound 28, Denatonium Saccharide] yielded an IC50 [2, 6] of 136 µM.

In the case of `Cc1cccc(C)c1NC(=O)CCC(C)C` [Compound 26, 4-methyl-N-(2,6-dimethylphenyl)-pentanamide], the IC50 [2, 6] is reported as 119 µM and the “IL-5 IC-50 compared with lidocaine” value [2] is reported as “lower than lidocaine's”.

Work on `O=C(O)C1CNc2ccccc2O1` (stereo not drawn) [Compound 12, 3,4-Dihydro-2H-1,4-Benzoxazine-2-Carboxylic Acid] yielded an IC50 [2, 6] of 38 µM.

For `C[C@@H]1C[C@H]2[C@@H]3CCC4=CC(=O)C=C[C@]4(C)[C@@]3(F)[C@@H](O)C[C@]2(C)[C@@]1(O)C(=O)CO` [Compound 2, Dexamethasone, reference compound], the IC50 [1, 5] was 38 µM, the Di value ([2]; EPO IC-50/IL5 IC-50) was 5.136 and 5.14 and the IC50 [2, 6] was 9 µM. The IC50 [2, 7] was 7 µM, the IC50 [2, 8] was 4 µM and the Di ([2]; Table 7) was 5.136.

In the case of `Cc1cccc(C)c1NC(=O)c1ccnc2ccccc12` [Compound 9, N-(2,6-dimethylphenyl)quinoline-4-carboxamide], the IC50 [2, 6] is reported as 24 µM and the “IL-5 IC-50 compared with lidocaine” value [2] is reported as “lower than lidocaine's”.

In the case of `CC(C)(C)OC(=O)Nc1ccc(C(=O)NCC(=O)O)cc1` [Compound 6, Boc-4-aminohippuric Acid], the IC50 [2, 6] is reported as 19 µM.

In the case of `CC1COc2c(F)c(F)cc3c(=O)c(C(=O)O)cn1c23` (stereo not drawn) [Compound 7, 9,10-Difluoro-2,3-dihydro-3-methyl-7-oxo-7H-pyrido[1,2,3-DE]-1,4-benzoxazine-6-carboxylic acid], the IC50 [2, 6] is reported as 20 µM.

Work on `O=C(CN1CCN(c2ncccn2)CC1)Nc1ccc(F)cc1F` [Compound 5, N-(2,4-difluorophenyl)-2-(4-pyrimidin-2-ylpiperazinyl)ethanamide] yielded an IC50 [2, 6] of 5 µM and an IC50 [2, 8] of 5 µM.

B1: mepolizumab: anti-IL-5 drug (antibody, chains of the INN, looked up, V domains shown)
VH: QVTLRESGPALVKPTQTLTLTCTVSGFSLTSYSVHWVRQPPGKGLEWLGVIWASGGTDYNSALMSRLSISKDTSRNQVVLTMTNMDPVDTATYYCARDPPSSLLRLDYWGRGTPVTVSS
VL: DIVMTQSPDSLAVSLGERATINCKSSQSLLNSGNQKNYLAWYQQKPGQPPKLLIYGASTRESGVPDRFSGSGSGTDFTLTISSLQAEDVAVYYCQNVHSFPFTFGGGTKLEIK
For B1, the “blood and sputum eosinophils” value [4] is listed as “reduced”.
